Experimental data published in paper PMC5541560, “A biomimetic semisynthesis enables structural elucidation of selaginellin U: a tautomeric cyclic alkynylphenol from Selaginella tamariscina” (Royal Society Open Science, 2017).

Target: T1, β-site amyloid precursor protein cleaving enzyme 1 (BACE1) (Homo sapiens, UniProt P56817)
Assay: FRET peptide substrate assay (Sigma kit CS0010), purified baculovirus-expressed BACE1
Assay type: biochemical

T1 sequence (P56817 46-457): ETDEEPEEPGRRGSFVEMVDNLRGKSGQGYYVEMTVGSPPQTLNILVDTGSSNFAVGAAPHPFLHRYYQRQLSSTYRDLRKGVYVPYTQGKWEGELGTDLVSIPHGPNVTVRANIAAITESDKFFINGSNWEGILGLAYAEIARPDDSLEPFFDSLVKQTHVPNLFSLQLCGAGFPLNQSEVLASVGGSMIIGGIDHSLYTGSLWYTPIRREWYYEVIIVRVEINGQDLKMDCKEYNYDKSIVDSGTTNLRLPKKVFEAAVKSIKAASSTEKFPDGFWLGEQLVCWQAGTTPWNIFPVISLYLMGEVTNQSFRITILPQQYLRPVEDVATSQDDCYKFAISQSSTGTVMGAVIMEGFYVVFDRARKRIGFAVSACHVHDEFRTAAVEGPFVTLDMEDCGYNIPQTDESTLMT

SMILES | IC50
O=C1C=CC(=C(c2ccc(O)cc2)c2c(-c3ccc(O)cc3)ccc(CO)c2C#Cc2ccc(O)cc2)C=C1 [compound 3, selaginellin] | 81.2 µM
Cc1ccc(-c2ccc(O)cc2)c(C(=C2C=CC(=O)C=C2)c2ccc(O)cc2)c1C#Cc1ccc(O)cc1 [compound 13, selaginellin B] | 51.1 µM
O=Cc1ccc(-c2ccc(O)cc2)c(C(=C2C=CC(=O)C=C2)c2ccc(O)cc2)c1C#Cc1ccc(O)cc1 [compound 16, selaginellin O] | 48.9 µM

Target: T1, β-site amyloid precursor protein cleaving enzyme 1 (BACE1)
Assay: biochemical
Set-up: FRET peptide substrate cleavage assay (Sigma kit CS0010), purified baculovirus-expressed BACE1, inhibition
Description: Compounds 1–3 and 7–16 were tested for β-site amyloid precursor protein (APP) cleaving enzyme 1 (BACE1) inhibitory activity. BACE1 inhibitory evaluation was performed with a fluorescence resonance energy transfer (FRET) assay kit supplied by Sigma (Kit CS0010, St. Louis, USA). The kit used purified baculovirus-expressed BACE1 and FRET peptide substrates.

SMILES | IC50
O=C1OC(c2ccc(O)cc2)(c2ccc(O)cc2)c2c1cccc2-c1ccc(O)cc1 [compound 1, selaginellin T] | > 100 µM
O=C1C=CC(=C(c2ccc(O)cc2)c2c(-c3ccc(O)cc3)ccc3c(=O)oc(-c4ccc(O)cc4)cc23)C=C1 [compound 2, selaginellin U] | > 100 µM
OCc1ccc2c(c1C#Cc1ccc(O)cc1)C(c1ccc(O)cc1)(c1ccc(O)cc1)c1cc(O)ccc1-2 [compound 7, selaginpulvilin A] | > 100 µM
Cc1ccc(-c2ccc(O)cc2)c(C(=C2C=CC(=O)C=C2)c2ccccc2)c1C#Cc1ccc(O)cc1 [compound 12, selaginellin A] | > 100 µM
COc1ccc(C(=C2C=CC(=O)C=C2)c2c(-c3ccc(O)cc3)ccc(CO)c2C#Cc2ccc(O)cc2)cc1 [compound 15, selaginellin M] | > 100 µM
